Values of other authors in patent US11903955B2, “Methods of treating heart failure with reduced ejection fraction” (ASTRAZENECA AB, priority 2019, dated 2024).

What was measured:
[1] = test system: patients with systolic heart failure; conditions: after 12 months of treatment, SHIFT; cited from earlier work
patients with HFrEF = conditions: after 8 months of treatment, PARADIGM-HF; cited from earlier work

| Compound | mean improvement in KCCQ-CSS [1] | mean improvement in KCCQ-OSS [1] | improvement in KCCQ-CS over enalapril (patients with HFrEF) | improvement in KCCQ-OS over enalapril (patients with HFrEF) |
| --- | --- | --- | --- | --- |
| COc1cc2c(cc1OC)CC(=O)N(CCCN(C)C[C@H]1Cc3cc(OC)c(OC)cc31)CC2 [ivabradine] | 1.8 point | 2.4 point | – | – |
| sacubitril-valsartan | – | – | 0.9 point | 1.3 point |
